Measurements: patent US12622866B2, “Topical compositions and methods” (MARY KAY INC., priority 2018, dated 2026)

Tests used:
mushroom tyrosinase = assay: Mushroom tyrosinase activity assay; assay type: biochemical; details: ingredient 1%, substrate L-Dopa, read at 490 nm
Experimental: In mammalian cells, tyrosinase catalyzes two steps in the multi-step biosynthesis of melanin pigments from tyrosine (and from the polymerization of dopachrome). Tyrosinase is localized in melanocytes and produces melanin (aromatic quinone compounds) that imparts color to skin, hair, and eyes. Purified mushroom tyrosinase (Sigma) was incubated with its substrate L-Dopa (Fisher) in the presence of each of the ingredients in the amounts indicated in Table 3. Pigment formation was evaluated by colorimetric plate reading at 490 nm. The percent inhibition of mushroom tyrosinase activity was calculated compared to non-treated controls to determine the ability of tested ingredients to inhibit the activity of purified enzyme.

[1] = tested on: Type I procollagen peptide secretion by human adult epidermal fibroblasts; assay: Collagen stimulation assay; assay type: cell-based; details: ingredient 1%, 3 days, ELISA
Source text: Collagen is an extracellular matrix protein critical for skin structure. Increased synthesis of collagen helps improve skin firmness and elasticity. This bioassay was used to examine effects on the production of procollagen peptide (a precursor to collagen) by human epidermal fibroblasts. The endpoint of this assay was a spectrophotometric measurement that reflects the presence of procollagen peptide and cellular viability. The assay employed the quantitative sandwich enzyme immunoassay technique whereby a monoclonal antibody specific for procollagen peptide was pre-coated onto a microplate. Standards and samples were pipetted into the wells and any procollagen peptide present was bound by the immobilized antibody. […] Color development was stopped and the intensity of the color at 450 nm was measured using a microplate reader.
For generation of samples and controls, subconfluent normal human adult epidermal fibroblasts (Cascade Biologics) were cultivated in standard DMEM growth medium with 10% fetal bovine serum (Mediatech) at 37° C. in 10% CO2. […] Following incubation, cell culture medium was collected and the amount of Type I procollagen peptide secretion was quantified using the sandwich enzyme linked immuno-sorbant assay (ELISA) from Takara (#MK101) as explained above. […]

[2] = tested on: TNF-α production by human epidermal keratinocytes; assay: Tumor necrosis factor alpha (TNF-α) assay; assay type: cell-based; details: ingredient 1%, PMA 10 ng/ml, 6 hours, ELISA
Source text: The prototype ligand of the TNF superfamily, TNF-α, is a pleiotropic cytokine that plays a central role in inflammation. Increase in its expression is associated with an up regulation in pro-inflammatory activity. This bioassay was used to analyze the effect of the ingredients in the amounts listed in Table 9 on the production of TNF-α by human epidermal keratinocytes. The endpoint of this assay was a spectrophotometric measurement that reflects the presence of TNF-α and cellular viability. The assay employs the quantitative sandwich enzyme immunoassay technique whereby a monoclonal antibody specific for TNF-α has been pre-coated onto a microplate. Standards and samples were pipetted into the wells and any TNF-α present is bound by the immobilized antibody. After washing away any unbound substances, an enzyme-linked polyclonal antibody specific for TNF-α is added to the wells. Following a wash to remove any unbound antibody-enzyme reagent, a substrate solution is added to the wells and color develops in proportion to the amount of TNF-α bound in the initial step using a microplate reader for detection at 450 nm. The color development was stopped and the intensity of the color was measured. […] Following incubation, cell culture medium was collected and the amount of TNF-a secretion quantified using a sandwich enzyme linked immuno-sorbant assay (ELISA) from R&D Systems (#DTA00C).

[3] = Antioxidant (AO) assay, total anti-oxidant capacity; assay type: biochemical; details: ingredient 1%, Cayman Anti-Oxidant capacity kit #709001
Source text: The assay relies on the ability of antioxidants in the sample to inhibit the oxidation of ABTS® (2,2′-azino-di-[3-ethylbenzthiazoline sulphonate]) to ABTS®·+by metmyoglobin. The antioxidant system of living organisms includes enzymes such as superoxide dismutase, catalase, and glutathione peroxidase; macromolecules such as albumin, ceruloplasmin, and ferritin; and an array of small molecules, including ascorbic acid, α-tocopherol, β-carotene, reduced glutathione, uric acid, and bilirubin. The sum of endogenous and food-derived antioxidants represents the total antioxidant activity of the extracellular fluid. Cooperation of all the different antioxidants provides greater protection against attack by reactive oxygen or nitrogen radicals, than any single compound alone. Thus, the overall antioxidant capacity may give more relevant biological information compared to that obtained by the measurement of individual components, as it considers the cumulative effect of all antioxidants present in plasma and body fluids. The capacity of the antioxidants in the sample to prevent ABTS oxidation was compared with that of Trolox, a water-soluble tocopherol analogue, and was quantified as molar Trolox equivalents. […]

[4] = tested on: lysyl oxidase expression in skin cells; assay: Lysyl oxidase assay; assay type: cell-based; details: ingredient 1%
Experimental: A lysyl oxidase assay was performed on skin cells (e.g., epidermal keratinocytes, fibroblasts, and/or dermal endothelial cells) to determine the ability of the ingredient listed in Table 8 to stimulate expression of lysyl oxidase in skin. Lysyl oxidase can catalyze crosslinking of elastin and collagens, thereby providing for a more structurally rigid matrix for skin. By increasing expression of lysyl oxidase, increased cross-linking of elastin and collagens can occur, which can be beneficial in reducing the appearance of fine lines, wrinkles, sagging skin, and/or non-elastic skin.

B16-F1 melanocytes = assay: B16 pigmentation assay (melanogenesis); assay type: cell-based, mouse; details: ingredient 1%, 6 days, melanin secretion by absorbance at 405 nm
Source text: Melanogenesis is the process by which melanocytes produce melanin, a naturally produced pigment that imparts color to skin, hair, and eyes. Inhibiting melanogenesis is beneficial to prevent skin darkening and lighten dark spots associated with aging. This bioassay utilizes B16-F1 melanocytes (ATCC), an immortalized mouse melanoma cell line, to analyze the effect of compounds on melanogenesis. The endpoint of this assay is a spectrophotometric measurement of melanin production and cellular viability. B16-F1 melanocytes, were cultivated in standard DMEM growth medium with 10% fetal bovine serum (Mediatech) at 37° C. in 10% CO2 and then treated with the ingredients in the amounts indicated in Table 2 for 6 days. Following incubation, melanin secretion was measured by absorbance at 405 nm and cellular viability is quantified.

Molecule | % of Inhibition (Mushroom Tyrosinase Inhibition) (mushroom tyrosinase) [%] | % of expression (Collagen 1 Expression) [1] [%] | % of expression (TNF-α Expression) [2] [%] | % of Inhibition (Anti-oxidant capacity) [3] [%] | % of expression (Lysyl Oxidase) [4] [%] | % of Inhibition (B16 melanogenesis) (B16-F1 melanocytes) [%]
Sodium ascorbyl phosphate [Stay C 50] | 26 | 36 | 85 | 97 | 500 | –
NC(=O)c1cccnc1 [Niacinamide] | – | – | – | – | – | 30
